# Measured values: patent publication US9023847B2, “Azaheterocyclic compounds” (Merck Patent GmbH, priority 2009, dated 2015)
# Target: T1, P70S6K (T412E mutant, Millipore) (Homo sapiens, UniProt P23443, T412E)
# T1 construct: purchased Millipore
# Test: p70S6K enzyme assay
# Format: biochemical
# Details: class symbol; 3 nM P70S6K, 24 μM ATP; read-out: IC50 (p70S6K)
# Protocol: P70S6K inhibitor compounds are diluted and plated in 96 well plates. A reaction mixture including the following components is then added to the compound plate to initiate the enzyme reaction; P70S6K (3 nM, T412E mutant, Millipore) is mixed with 24 μM ATP in an assay buffer containing 100 mM Hepes (pH 7.5), 5 mM MgCl2, 1 mM DTT, 0.015% Brij and 1 μM of the substrate peptide FITC-AHA-AKRRRLSSLRA-OH (derived from the S6 ribosomal protein sequence, FITC=fluorescein isothiocyanate, AHA=6-aminohexanoic acid). The reaction is incubated for 90 min at 25° C., before the addition of 10 mM EDTA to stop the reaction. The proportion of substrate and product (phosphorylated) peptide is analysed on a Caliper Life Sciences Lab Chip 3000, using a pressure of −1.4 psi, and upstream and downstream voltages of −3000 and −700 respectively. Product peaks are resolved before substrate peaks on the resulting chromatograms.
# T1 sequence (P23443 whole entry T412E): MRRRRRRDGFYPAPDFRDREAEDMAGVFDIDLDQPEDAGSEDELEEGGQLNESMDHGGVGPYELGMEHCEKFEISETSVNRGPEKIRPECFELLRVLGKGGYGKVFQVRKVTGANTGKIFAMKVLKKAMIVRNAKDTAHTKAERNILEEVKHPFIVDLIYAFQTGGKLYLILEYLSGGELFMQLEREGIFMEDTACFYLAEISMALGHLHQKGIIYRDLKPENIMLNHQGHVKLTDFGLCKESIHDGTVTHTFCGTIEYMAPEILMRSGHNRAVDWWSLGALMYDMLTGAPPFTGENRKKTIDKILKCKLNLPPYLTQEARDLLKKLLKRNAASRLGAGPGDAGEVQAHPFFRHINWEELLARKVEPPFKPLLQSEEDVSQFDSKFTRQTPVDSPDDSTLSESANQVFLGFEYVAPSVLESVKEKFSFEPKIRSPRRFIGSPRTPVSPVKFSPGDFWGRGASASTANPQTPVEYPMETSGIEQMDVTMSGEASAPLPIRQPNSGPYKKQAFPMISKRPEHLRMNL
row,SMILES,IC50 [nM]
1,"O=C(CNC(=O)c1sccc1Nc1ccnc2[nH]ccc12)NCc1ccccc1 [Example 73, 3-(1H-Pyrrolo[2,3-b]pyridin-4-ylamino)-thiophene-2-carboxylic acid (benzylcarbamoyl-methyl)-amide]",100 to 1000
2,"O=C(NCCNCc1ccncc1)c1sccc1Nc1ccnc2[nH]ccc12 [Example 74, 3-(1H-Pyrrolo[2,3-b]pyridin-4-ylamino)-thiophene-2-carboxylic acid {2-[(pyridin-4-ylmethyl)-amino]-ethyl}-amide]",100 to 1000
3,"O=C(N[C@H](CO)c1ccccc1)c1ccsc1Nc1ccnc2[nH]ccc12 [Example 75, 2-(1H-Pyrrolo[2,3-b]pyridin-4-ylamino)-thiophene-3-carboxylic acid ((S)-2-hydroxy-1-phenyl-ethyl)-amide]",< 100
4,"[N-]=[N+]=NCC(NC(=O)c1sccc1Nc1ccnc2[nH]ccc12)c1ccccc1 (stereo not drawn) [Example 76, 3-(1H-Pyrrolo[2,3-b]pyridin-4-ylamino)-thiophene-2-carboxylic acid (2-azido-1-phenyl-ethyl)-amide]",< 100
5,"NCC(NC(=O)c1sccc1Nc1ccnc2[nH]ccc12)c1ccccc1 (stereo not drawn) [Example 77, 3-(1H-Pyrrolo[2,3-b]pyridin-4-ylamino)-thiophene-2-carboxylic acid (2-amino-1-phenyl-ethyl)-amide]",< 100
6,"NC(CNC(=O)c1sccc1Nc1ccnc2[nH]ccc12)c1ccccc1 (stereo not drawn) [Example 78, 3-(1H-Pyrrolo[2,3-b]pyridin-4-ylamino)-thiophene-2-carboxylic acid (2-amino-2-phenyl-ethyl)-amide]",< 100
7,"Cc1cc(Nc2ccnc3[nH]ccc23)c(C(=O)NCCNCc2ccccc2)s1 [Example 79, 5-Methyl-3-(1H-pyrrolo[2,3-b]pyridin-4-ylamino)-thiophene-2-carboxylic acid (2-benzylamino-ethyl)-amide]",1000 to 10000
8,"Cc1cc(Nc2ccnc3[nH]ccc23)c(C(=O)N[C@H](CO)c2ccccc2)s1 [Example 80, 5-Methyl-3-(1H-pyrrolo[2,3-b]pyridin-4-ylamino)-thiophene-2-carboxylicacid ((S)-2-hydroxy-1-phenyl-ethyl)-amide]",100 to 1000
9,"O=C(N[C@@H](CO)Cc1ccccc1)c1sccc1Nc1ccnc2[nH]ccc12 [Example 81, 3-(1H-Pyrrolo[2,3-b]pyridin-4-ylamino)-thiophene-2-carboxylic acid ((R)-1-benzyl-2-hydroxy-ethyl)-amide]",1000 to 10000
10,"O=C(N[C@@H](CO)[C@@H](O)c1ccccc1)c1sccc1Nc1ccnc2[nH]ccc12 [Example 84, 3-(1H-Pyrrolo[2,3-b]pyridin-4-ylamino)-thiophene-2-carboxylic acid ((1S,2S)-2-hydroxy-1-hydroxymethyl-2-phenyl-ethyl)-amide]",1000 to 10000
11,"COC(=O)C(CO)NC(=O)c1sccc1Nc1ccnc2[nH]ccc12 (stereo not drawn) [Example 85, 3-Hydroxy-2-{[3-(1H-pyrrolo[2,3-b]pyridin-4-ylamino)-thiophene-2-carbonyl]-amino}-propionic acid methyl ester]",100 to 1000
12,"O=C(N[C@H](CO)Cc1ccccc1)c1sccc1Nc1ccnc2[nH]ccc12 [Example 86, 3-(1H-Pyrrolo[2,3-b]pyridin-4-ylamino)-thiophene-2-carboxylic acid ((S)-1-benzyl-2-hydroxy-ethyl)-amide]",< 100
13,"Nc1cccc(CNC(=O)c2sccc2Nc2ccnc3[nH]ccc23)c1 [Example 87, 3-(1H-Pyrrolo[2,3-b]pyridin-4-ylamino)-thiophene-2-carboxylic acid 3-amino-benzylamide]",< 100

# Same assay, conditions: numeric bound printed under the example; read-out: IC50 (p70S6K)
row,SMILES,IC50 [nM]
1,"O=C(NCCNCc1ccccc1)c1sc2ccccc2c1Nc1ccnc2[nH]ccc12 [Example 82, 3-(1H-Pyrrolo[2,3-b]pyridin-4-ylamino)-benzo[b]thiophene-2-carboxylic acid (2-benzylamino-ethyl)-amide]",> 10000
2,"O=C(N[C@H](CO)c1ccccc1)c1sc2ccccc2c1Nc1ccnc2[nH]ccc12 [Example 83, 3-(1H-Pyrrolo[2,3-b]pyridin-4-ylamino)-benzo[b]thiophene-2-carboxylic acid ((S)-2-hydroxy-1-phenyl-ethyl)-amide]",> 10000
